The values below are quoted from earlier work in article PMC8344021, “Discovery of Small Molecule Bak Activator for Lung Cancer Therapy” (Theranostics, 2021).

For one data set, the system named is SCLC. More on the design: method as in PMID 21282543, PMID 22496272. As to conditions: single-agent, SCLC patients; ref [16], [17]; cited from earlier work.
Data set [1] has as its system chronic lymphocytic leukemia (CLL). Details: method as in PMID 29562156, PMID 31205643. The conditions noted are these: venetoclax monotherapy or venetoclax/rituximab combination; ref [11], [12]; cited from earlier work.

As for `CC1(C)CCC(c2ccc(Cl)cc2)=C(CN2CCN(c3ccc(C(=O)NS(=O)(=O)c4ccc(N[C@H](CCN5CCOCC5)CSc5ccccc5)c(S(=O)(=O)C(F)(F)F)c4)cc3)CC2)C1` [navitoclax], the clinical efficacy entry in the data set with SCLC is listed as “limited efficacy”.

In the case of `CC1(C)CCC(CN2CCN(c3ccc(C(=O)NS(=O)(=O)c4ccc(NCC5CCOCC5)c([N+](=O)[O-])c4)c(Oc4cnc5[nH]ccc5c4)c3)CC2)=C(c2ccc(Cl)cc2)C1` [venetoclax], the “proportion of patients who develop venetoclax failure” value in data set [1] is 15-25%.
